Tests used:
[1] = molecular target: T1, human recombinant serotonin (5-Hydroxytryptamine) 5-HT2A receptor (Homo sapiens, UniProt P28223); test: Serotonin 5-HT2A radioligand binding ([3H]Ketanserin); details: read-out: Inhibition of ligand binding, Serotonin 5-HT2A (percent inhibition of specific binding), compound at 0.1 μM
T1 construct: expressed in transfected cells; host or cells: Chinese hamster ovary (CHO-K1) cells
Protocol: (§1) Compounds of the invention were incubated with 0.5 nM [^3H]Ketanserin for 60 min. at 25° C. Non-specific binding was estimated in the presence of 1 μM Mianserin. Receptor proteins were filtered and washed, the filters were then counted to determine [^3H]Ketanserin specifically bound.

[2] = molecular target: T2, human recombinant serotonin (5-Hydroxytryptamine) 5-HT2C receptor (Homo sapiens, UniProt P28335); test: Serotonin 5-HT2C radioligand binding ([3H]Mesulergine); details: compound at 0.1 μM; read-out: Inhibition of ligand binding, Serotonin 5-HT2C (percent inhibition of specific binding)
T2 construct: expressed in transfected cells; host or cells: Chinese hamster ovary (CHO-K1) cells
T2 sequence (P28335 33-458): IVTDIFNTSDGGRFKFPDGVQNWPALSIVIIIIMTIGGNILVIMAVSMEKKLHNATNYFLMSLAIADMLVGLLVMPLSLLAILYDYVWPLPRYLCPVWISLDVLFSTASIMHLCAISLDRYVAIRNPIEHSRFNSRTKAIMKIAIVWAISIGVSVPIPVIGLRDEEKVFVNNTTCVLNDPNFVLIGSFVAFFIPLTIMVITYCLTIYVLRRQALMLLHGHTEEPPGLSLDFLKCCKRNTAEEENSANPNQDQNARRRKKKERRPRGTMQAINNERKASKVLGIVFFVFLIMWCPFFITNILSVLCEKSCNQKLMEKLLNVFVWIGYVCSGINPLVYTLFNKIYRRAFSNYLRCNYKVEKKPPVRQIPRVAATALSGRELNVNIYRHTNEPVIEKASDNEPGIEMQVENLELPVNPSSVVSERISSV
Protocol: as §1, with “1” for “0.5”, “[^3H]Mesulergine” for “[^3H]Ketanserin”, “bound. Compounds were screened at 1 μM or lower, using 1% DMSO as vehicle. Biochemical assay results are presented as the percent inhibition of specific binding in Table 10.” for “bound.”

[3] = molecular target: human dopamine D2L receptor (Homo sapiens, UniProt P14416); test: Dopamine D2L radioligand binding ([3H]Spiperone); details: percent inhibition of specific binding, compound at 1 μM; for inhibition at 1 µM: read-out: Inhibition of ligand binding, Dopamine D2L
Text: Non-specific binding was estimated in the presence of […] Haloperidol. Receptor proteins were filtered and washed, the filters were then counted to determine [^3H]Spiperone specifically bound. […] Biochemical assay results are presented as the percent inhibition of specific binding in Table 9.

[4] = molecular target: T3, human recombinant serotonin (5-Hydroxytryptamine) 5-HT6 receptor (Homo sapiens, UniProt P50406); test: Serotonin 5-HT6 radioligand binding ([3H]LSD); details: compound at 0.1 μM; read-out: Inhibition of ligand binding, Serotonin 5-HT6 (percent inhibition of specific binding)
T3 construct: expressed in transfected cells; host or cells: human HeLa cells
Protocol: Compounds of the invention were incubated with 1.5 nM [3H]Lysergic acid diethylamide (LSD) for 120 min. at 37° C. […] Receptor proteins were filtered and washed, the filters were then counted to determine [3H]LSD specifically bound. Compounds were screened at 1 μM or lower, using 1% DMSO as vehicle. Biochemical assay results are presented as the percent inhibition of specific binding in Table 10.

histamine receptor H1 = histamine receptor H1 (Homo sapiens, UniProt P35367); test: Histamine H1 radioligand binding ([3H]Pyrilamine); details: for inhibition at 1 µM: read-out: Histamine Binding (1 μM) H1, percent inhibition of specific binding, 1 μM
Procedure, shortened: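 Values are percent inhibition of specific [3H]pyrilamine (1.2 nM) binding with compounds at ≤1 μM (1% DMSO vehicle); 180 min incubation at 25 °C, pH 7.4 Tris buffer, on CHO-expressed human H1 receptor; 1 μM pyrilamine defined nonspecific binding, bound ligand counted after filtration.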

[5] = molecular target: human recombinant serotonin (5-Hydroxytryptamine) 5-HT7 receptor (Homo sapiens, UniProt P34969); test: Serotonin 5-HT7 radioligand binding ([3H]LSD); details: compound at 0.1 μM; read-out: Inhibition of ligand binding, Serotonin 5-HT7 (percent inhibition of specific binding)
Text: Receptor proteins were filtered and washed, the filters were then counted to determine [^3H]LSD specifically bound.

human recombinant serotonin (5-Hydroxytryptamine) 5-HT7 receptor, sequence (P34969 whole entry): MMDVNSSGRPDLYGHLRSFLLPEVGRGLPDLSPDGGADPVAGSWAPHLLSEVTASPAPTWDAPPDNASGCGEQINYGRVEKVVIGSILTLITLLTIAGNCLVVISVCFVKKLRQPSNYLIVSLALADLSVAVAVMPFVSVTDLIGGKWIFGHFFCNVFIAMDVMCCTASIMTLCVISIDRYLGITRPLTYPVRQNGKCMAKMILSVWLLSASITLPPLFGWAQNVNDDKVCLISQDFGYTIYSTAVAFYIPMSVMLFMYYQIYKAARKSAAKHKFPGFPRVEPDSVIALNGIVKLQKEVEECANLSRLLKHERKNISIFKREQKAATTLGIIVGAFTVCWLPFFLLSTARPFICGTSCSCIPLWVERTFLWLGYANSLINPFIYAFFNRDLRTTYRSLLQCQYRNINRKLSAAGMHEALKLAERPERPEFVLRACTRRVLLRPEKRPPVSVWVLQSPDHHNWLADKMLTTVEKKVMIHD
T3 sequence (P50406 whole entry): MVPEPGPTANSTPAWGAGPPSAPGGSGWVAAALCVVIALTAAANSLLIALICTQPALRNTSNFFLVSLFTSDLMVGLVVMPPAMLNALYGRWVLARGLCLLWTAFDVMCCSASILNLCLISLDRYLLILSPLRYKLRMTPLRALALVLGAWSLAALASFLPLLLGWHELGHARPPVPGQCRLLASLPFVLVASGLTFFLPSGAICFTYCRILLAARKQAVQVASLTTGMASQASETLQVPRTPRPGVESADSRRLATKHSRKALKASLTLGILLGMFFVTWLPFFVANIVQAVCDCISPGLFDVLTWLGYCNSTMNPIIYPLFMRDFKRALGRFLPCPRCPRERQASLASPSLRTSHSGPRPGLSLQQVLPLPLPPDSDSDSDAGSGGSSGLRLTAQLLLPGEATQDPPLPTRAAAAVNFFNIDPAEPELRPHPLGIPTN
T1 sequence (P28223 whole entry): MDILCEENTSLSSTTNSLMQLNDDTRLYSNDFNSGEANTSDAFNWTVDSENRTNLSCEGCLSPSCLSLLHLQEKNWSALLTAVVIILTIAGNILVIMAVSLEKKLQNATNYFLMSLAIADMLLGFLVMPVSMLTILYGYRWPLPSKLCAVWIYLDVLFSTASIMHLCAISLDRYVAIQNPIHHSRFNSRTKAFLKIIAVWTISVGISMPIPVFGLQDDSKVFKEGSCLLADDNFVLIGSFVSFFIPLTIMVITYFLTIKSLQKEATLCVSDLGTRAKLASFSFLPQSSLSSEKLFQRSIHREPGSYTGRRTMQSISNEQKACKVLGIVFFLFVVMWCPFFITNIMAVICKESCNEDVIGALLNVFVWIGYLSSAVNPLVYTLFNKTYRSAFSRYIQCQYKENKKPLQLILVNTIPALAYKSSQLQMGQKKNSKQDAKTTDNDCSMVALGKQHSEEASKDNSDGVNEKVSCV
histamine receptor H1, sequence (P35367 whole entry): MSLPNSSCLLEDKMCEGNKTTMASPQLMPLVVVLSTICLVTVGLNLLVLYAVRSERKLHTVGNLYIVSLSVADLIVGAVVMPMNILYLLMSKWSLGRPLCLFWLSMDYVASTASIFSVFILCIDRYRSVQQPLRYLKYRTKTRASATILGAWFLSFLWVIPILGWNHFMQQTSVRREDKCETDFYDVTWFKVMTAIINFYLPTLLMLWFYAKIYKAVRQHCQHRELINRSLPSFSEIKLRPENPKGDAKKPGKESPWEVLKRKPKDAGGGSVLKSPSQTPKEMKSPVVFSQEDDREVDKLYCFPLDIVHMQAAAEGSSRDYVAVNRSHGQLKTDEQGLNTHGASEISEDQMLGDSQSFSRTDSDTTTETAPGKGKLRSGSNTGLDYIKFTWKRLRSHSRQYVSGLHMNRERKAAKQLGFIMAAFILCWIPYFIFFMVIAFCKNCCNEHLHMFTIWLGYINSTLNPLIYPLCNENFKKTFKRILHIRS
human dopamine D2L receptor, sequence (P14416 whole entry): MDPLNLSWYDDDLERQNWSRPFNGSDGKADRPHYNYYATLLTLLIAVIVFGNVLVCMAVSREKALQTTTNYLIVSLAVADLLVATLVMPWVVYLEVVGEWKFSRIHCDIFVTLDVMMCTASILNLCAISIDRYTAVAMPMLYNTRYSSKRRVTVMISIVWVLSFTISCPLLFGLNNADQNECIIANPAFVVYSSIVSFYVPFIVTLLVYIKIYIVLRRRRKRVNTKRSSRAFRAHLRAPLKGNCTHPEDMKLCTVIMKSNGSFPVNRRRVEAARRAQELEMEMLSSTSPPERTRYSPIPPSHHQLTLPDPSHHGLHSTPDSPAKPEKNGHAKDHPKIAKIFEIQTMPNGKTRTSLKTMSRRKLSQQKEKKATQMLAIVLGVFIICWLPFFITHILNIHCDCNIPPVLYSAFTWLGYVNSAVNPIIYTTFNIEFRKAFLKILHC

Row | SMILES | inhibition at 0.1 µM [1] [%] | inhibition at 0.1 µM [2] [%] | inhibition at 1 µM [3] [%] | inhibition at 0.1 µM [4] [%] | inhibition at 1 µM (histamine receptor H1) [%] | inhibition at 0.1 µM [5] [%] | Inhibition of ligand binding, Dopamine D2L ([3]; 1 µM) [%] | Histamine Binding (1 μM) H1, percent inhibition of specific binding (histamine receptor H1; 1 μM) [%]
1 | C/C(=C\n1c2c(c3cc(C(F)(F)F)ccc31)CN(C)CC2)c1ccncc1 [Compound 249, (E)-2-methyl-5-(2-(pyridin-4-yl)prop-1-enyl)-8-(trifluoromethyl)-2,3,4,5-tetrahydro-1H-pyrido[4,3-b]indole] | 90 | 60 | 93 | 98 | 48 | 70 |  | 
2 | C/C(=C\n1c2c(c3cc(C)ccc31)CN(C)CC2)c1ccc(F)cc1F [Compound 276, (E)-5-(2-(2,4-difluorophenyl)prop-1-enyl)-2,8-dimethyl-2,3,4,5-tetrahydro-1H-pyrido[4,3-b]indole] | 99 | 96 | 82 | 81 | 63 | 86 |  | 
3 | Cc1ccc2c(c1)c1c(n2CC(C)(O)c2cnccn2)CCN(C)C1 (stereo not drawn) [Compound 200, 1-(2,8-dimethyl-3,4-dihydro-1H-pyrido[4,3-b]indol-5(2H)-yl)-2-(pyrazin-2-yl)propan-2-ol] | 30 | 17 | 6 | 20 | 45 | 31 |  | 
4 | CCC(O)(Cn1c2c(c3cc(C)ccc31)CN(C)CC2)c1ccncc1 (stereo not drawn) [Compound 196, 1-(2,8-dimethyl-3,4-dihydro-1H-pyrido[4,3-b]indol-5(2H)-yl)-2-(pyridin-4-yl)butan-2-ol] | 36 | 8 | 9 | 10 | 19 | 12 |  | 
5 | C/C(=C\n1c2c(c3ccc(F)cc31)CN(C)CC2)c1ccc(C)nc1 [Compound 261, (E)-7-fluoro-2-methyl-5-(2-(6-methylpyridin-3-yl)prop-1-enyl)-2,3,4,5-tetrahydro-1H-pyrido[4,3-b]indole] | 74 | 31 | 28 | 4 | 11 | 47 |  | 
6 | C/C(=C/n1c2c(c3cc(Cl)ccc31)CN(C)CC2)c1ccc(Cl)c(Cl)c1 [Compound 256, (Z)-8-chloro-5-(2-(3,4-dichlorophenyl)prop-1-enyl)-2-methyl-2,3,4,5-tetrahydro-1H-pyrido[4,3-b]indole] | 100 | 90 | 34 | 96 | 92 | 85 |  | 
7 | C/C(=C\n1c2c(c3ccccc31)CN(C)CC2)c1ccc(C)nc1 [Compound 254, (E)-2-methyl-5-(2-(6-methylpyridin-3-yl)prop-1-enyl)-2,3,4,5-tetrahydro-1H-pyrido[4,3-b]indole] | 65 | 52 | 11 | 15 | 7 | 63 |  | 
8 | C/C(=C\n1c2c(c3cc(C)ccc31)CN(C(C)C)CC2)c1ccncc1 [Compound 272, (E)-2-isopropyl-8-methyl-5-(2-(pyridin-4-yl)prop-1-enyl)-2,3,4,5-tetrahydro-1H-pyrido[4,3-b]indole] | 62 | 40 | 85 | 98 | 48 | -1 |  | 
9 | CCN1CCc2c(c3ccccc3n2/C=C(\C)c2ccncc2)C1 [Compound 266, (E)-2-ethyl-5-(2-(pyridin-4-yl)prop-1-enyl)-2,3,4,5-tetrahydro-1H-pyrido[4,3-b]indole] | 67 | 12 | 94 | 81 | -1 | 18 |  | 
10 | CCc1ccc2c(c1)c1c(n2/C=C(\C)c2ccncc2)CCN(C)C1 [Compound 270, (E)-8-ethyl-2-methyl-5-(2-(pyridin-4-yl)prop-1-enyl)-2,3,4,5-tetrahydro-1H-pyrido[4,3-b]indole] | 92 | 84 | 88 | 97 | 19 | 79 |  | 
11 | C/C(=C\n1c2c(c3cc(F)c(F)cc31)CN(C)CC2)c1ccc(C)nc1 [Compound 255, (E)-7,8-difluoro-2-methyl-5-(2-(6-methylpyridin-3-yl)prop-1-enyl)-2,3,4,5-tetrahydro-1H-pyrido[4,3-b]indole] | 81 | 69 | 29 | 4 | 11 | 54 |  | 
12 | Cc1ccc2c(c1)c1c(n2CC(O)(c2ccncc2)C(C)C)CCN(C)C1 (stereo not drawn) [Compound 194, 1-(2,8-dimethyl-3,4-dihydro-1H-pyrido[4,3-b]indol-5(2H)-yl)-3-methyl-2-(pyridin-4-yl)butan-2-ol] | 71 | 47 | 12 | 7 | 9 | 16 |  | 
13 | C/C(=C\n1c2c(c3cc(C(F)(F)F)ccc31)CN(C)CC2)c1ccc(F)cc1 [Compound 268, (E)-5-(2-(4-fluorophenyl)prop-1-enyl)-2-methyl-8-(trifluoromethyl)-2,3,4,5-tetrahydro-1H-pyrido[4,3-b]indole] | 98 | 86 | 98 | 97 | 53 | 87 |  | 
14 | C/C(=C\n1c2c(c3cc(Cl)ccc31)CN(C)C(C)C2)c1ccncc1 (stereo not drawn) [Compound 275, (E)-8-chloro-2,3-dimethyl-5-(2-(pyridin-4-yl)prop-1-enyl)-2,3,4,5-tetrahydro-1H-pyrido[4,3-b]indole] | 93 | 98 | 92 | 101 | 39 | 72 |  | 
15 | C/C(=C\n1c2c(c3cc(C(C)(C)C)ccc31)CN(C)CC2)c1ccncc1 [Compound 271, (E)-8-tert-butyl-2-methyl-5-(2-(pyridin-4-yl)prop-1-enyl)-2,3,4,5-tetrahydro-1H-pyrido[4,3-b]indole] | 41 | 19 | 63 | 90 | -16 | 10 |  | 
16 | CCN1CCc2c(c3cc(C)ccc3n2/C=C(\C)c2ccncc2)C1 [Compound 269, (E)-2-ethyl-8-methyl-5-(2-(pyridin-4-yl)prop-1-enyl)-2,3,4,5-tetrahydro-1H-pyrido[4,3-b]indole] | 87 | 55 | 91 | 102 | -2 | 51 |  | 
17 | CC(=Cn1c2c(c3cc(Cl)ccc31)CN(C)CC2)c1ccc(F)cc1F (stereo in doubt) [Compound 107, 8-chloro-5-((Z)-2-(2,4-difluorophenyl)prop-1-enyl)-2,3,4,5-tetrahydro-2-methyl-1H-pyrido[4,3-b]indole] | 96 | 95 |  | 97 |  | 95 | 72 | 88

Source: patent US8906925B2, “Pyrido[4,3-B]indoles containing rigid moieties” (Medivation Technologies, Inc., priority 2008, dated 2014)
